Laboratory results published in patent publication US20260001889A1, “COMPOSITIONS USEFUL FOR MODULATING SPLICING” (Skyhawk Therapeutics, Inc., priority 2022, published 2026).
pEC50, pIC50: −log10 of the molar value.

Legend:
ATXN3-HiBiT protein = assay: ATXN3 Total Protein Assay (Kelly-ATXN3-HiBiT luminescence); format: cell-based; details: Kelly-ATXN3-HiBiT cells, 48 h after addition of compound
Procedure, shortened: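 Kelly cells with homozygous C-terminal HiBiT knock-in on endogenous ATXN3, 2000 per well, dosed 24 h after seeding. HiBiT lytic luminescence read 48 h after compound; sister plate read with CellTiter-Glo for viability; fold change vs DMSO.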

[1] = test system: ATXN3 transcripts containing exon 4; assay: ATXN3 Quantitative Splicing Assay (qPCR, E4E5 primers/probe); format: cell-based; details: Homo sapiens, SK-N-MC cells, compounds for 24 h
Procedure, shortened: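 SK-N-MC human neuroblastoma cells treated 24 h with compound from 30 μM to 0.6 nM, 24 h after plating. Lysate cDNA was run in TaqMan qPCR, with primers/probe E4E5 detecting exon 4-containing ATXN3 transcripts and E8E9 measuring total ATXN3.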

total ATXN3 protein = assay: ATXN3 Total Protein Assay (Mesoscale Discovery, SK-N-MC cells); format: cell-based, Human; details: incubation for 48 hours, MSD assay
Procedure, shortened: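 Human SK-N-MC neuroblastoma cells treated with compound at 30 μM to 0.6 nM for 48 h, then lysed with protease inhibitors. Total ATXN3 quantified by MSD sandwich immunoassay (mouse capture, rabbit detect antibodies, anti-rabbit MSD-ST secondary) against recombinant ATXN3 standards.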

N[C@@H](CCOC(F)F)Cc1oc2c(NCc3cccs3)cc(Cl)nc2c1Br [Compound 154, (S)-2-(2-amino-4-(difluoromethoxy)butyl)-3-bromo-5-chloro-N-(thiophen-2-ylmethyl)furo[3,2-b]pyridin-7-amine]
pEC50 (ATXN3-HiBiT protein): 7.00 to 11.00 | pIC50 [1]: 7.00 to 11.00 | pIC50 (total ATXN3 protein): 7.00 to 11.00

[2H]C([2H])([2H])OC[C@H](N)Cc1oc2c(NCc3cccs3)cc(Cl)nc2c1Br [Compound 157, 2-[(R)-2-amino-3-(2H3)methoxypropyl]-3-bromo-5-chloro-7-thenylamino-1-oxa-4-azaindene]
pEC50 (ATXN3-HiBiT protein): 7.00 to 11.00 | pIC50 [1]: 7.00 to 11.00 | pIC50 (total ATXN3 protein): 7.00 to 11.00

CC#Cc1cc(NCc2cccs2)c2oc(C[C@H](C)N)c(Br)c2n1 [Compound 160, 2-[(S)-2-aminopropyl]-3-bromo-5-(1-propynyl)-7-thenylamino-1-oxa-4-azaindene]
pEC50 (ATXN3-HiBiT protein): 6.30 to 7.00 | pIC50 [1]: 5.30 to 6.30 | pIC50 (total ATXN3 protein): 6.30 to 7.00

C#Cc1cc(NCc2cccs2)c2oc(C[C@H](C)N)c(C#C)c2n1 [Compound 162, 2-[(S)-2-aminopropyl]-3,5-diethynyl-7-thenylamino-1-oxa-4-azaindene]
pEC50 (ATXN3-HiBiT protein): 6.30 to 7.00 | pIC50 [1]: 7.00 to 11.00 | pIC50 (total ATXN3 protein): 7.00 to 11.00

C=Cc1cc(NCc2cccs2)c2oc(C[C@H](C)N)c(Br)c2n1 [Compound 164, 2-[(S)-2-aminopropyl]-3-bromo-7-thenylamino-5-vinyl-1-oxa-4-azaindene]
pEC50 (ATXN3-HiBiT protein): 5.30 to 6.30 | pIC50 [1]: 5.00 to 5.30 | pIC50 (total ATXN3 protein): 5.00 to 5.30

C[C@H](N)Cc1oc2c(NCc3cccs3)cc(C(=O)O)nc2c1Br [Compound 167, 2-[(2S)-2-aminopropyl]-3-bromo-7-[(thiophen-2-ylmethyl)amino]furo[3,2-b]pyridine-5-carboxylic acid]
pEC50 (ATXN3-HiBiT protein): 4.40 to 5.00 | pIC50 [1]: 4.40 to 5.00 | pIC50 (total ATXN3 protein): 4.40 to 5.00

CC[C@H](N)Cc1oc2c(NCc3cccs3)cc(Cl)nc2c1Br [Compound 169, 2-[(S)-2-aminobutyl]-3-bromo-5-chloro-7-thenylamino-1-oxa-4-azaindene]
pEC50 (ATXN3-HiBiT protein): 6.30 to 7.00 | pIC50 [1]: 5.30 to 6.30 | pIC50 (total ATXN3 protein): 6.30 to 7.00

C#Cc1cc(NCc2cccs2)c2oc(C[C@@H](N)C3CC(F)(F)C3)c(C#C)c2n1 [Compound 178, 2-[(R)-2-amino-2-(3,3-difluorocyclobutyl)ethyl]-3,5-diethynyl-7-thenylamino-1-oxa-4-azaindene]
pEC50 (ATXN3-HiBiT protein): 5.30 to 6.30 | pIC50 [1]: 5.30 to 6.30 | pIC50 (total ATXN3 protein): 5.30 to 6.30

C#Cc1c(C[C@@H](N)C2CC2)oc2c(NCc3cccs3)cc(Cl)nc12 [Compound 180, 2-[(R)-2-amino-2-cyclopropylethyl]-5-chloro-3-ethynyl-7-thenylamino-1-oxa-4-azaindene]
pEC50 (ATXN3-HiBiT protein): 6.30 to 7.00 | pIC50 [1]: 6.30 to 7.00 | pIC50 (total ATXN3 protein): 6.30 to 7.00

C#Cc1cc(NCc2cccs2)c2oc(C[C@@H](N)C3CC3)c(C#C)c2n1 [Compound 181, 2-[(R)-2-amino-2-cyclopropylethyl]-3,5-diethynyl-7-thenylamino-1-oxa-4-azaindene]
pEC50 (ATXN3-HiBiT protein): 5.30 to 6.30 | pIC50 [1]: 5.30 to 6.30 | pIC50 (total ATXN3 protein): 5.30 to 6.30

N[C@@H](COC(F)F)Cc1oc2c(NCc3cccs3)cc(Cl)nc2c1Cl [Compound 188, 2-[(R)-2-amino-3-difluoromethoxypropyl]-3,5-dichloro-7-thenylamino-1-oxa-4-azaindene]
pEC50 (ATXN3-HiBiT protein): 7.00 to 11.00 | pIC50 [1]: 6.30 to 7.00 | pIC50 (total ATXN3 protein): 6.30 to 7.00

C[C@H](N)C(F)(F)c1oc2c(NCc3cccs3)cc(Cl)nc2c1Cl [Compound 189, 2-[(S)-2-amino-1,1-difluoropropyl]-3,5-dichloro-7-thenylamino-1-oxa-4-azaindene]
pEC50 (ATXN3-HiBiT protein): 6.30 to 7.00 | pIC50 [1]: 6.30 to 7.00 | pIC50 (total ATXN3 protein): 6.30 to 7.00

N[C@@H](CO)C(F)(F)c1oc2c(NCc3cccs3)cc(Cl)nc2c1Cl [Compound 190, (S)-2-amino-3-(3,5-dichloro-7-thenylamino-1-oxa-4-aza-2-indenyl)-3,3-difluoro-1-propanol]
pEC50 (ATXN3-HiBiT protein): 5.30 to 6.30 | pIC50 [1]: 5.30 to 6.30 | pIC50 (total ATXN3 protein): 5.30 to 6.30

N[C@@H](CO)C(F)(F)c1oc2c(NCc3cccs3)cc(Cl)nc2c1Br [Compound 192, (S)-2-amino-3-(3-bromo-5-chloro-7-thenylamino-1-oxa-4-aza-2-indenyl)-3,3-difluoro-1-propanol]
pEC50 (ATXN3-HiBiT protein): 6.30 to 7.00 | pIC50 [1]: 6.30 to 7.00 | pIC50 (total ATXN3 protein): 6.30 to 7.00

COC[C@H](N)C(F)(F)c1oc2c(NCc3cccs3)cc(Cl)nc2c1Br [Compound 193, 2-[(S)-2-amino-1,1-difluoro-3-methoxypropyl]-3-bromo-5-chloro-7-thenylamino-1-oxa-4-azaindene]
pEC50 (ATXN3-HiBiT protein): 5.30 to 6.30 | pIC50 [1]: 5.30 to 6.30 | pIC50 (total ATXN3 protein): 5.30 to 6.30

C=Cc1c(C[C@H](C)N)oc2c(NCc3cccs3)cc(Cl)nc12 [Compound 194, 2-[(S)-2-aminopropyl]-5-chloro-7-thenylamino-3-vinyl-1-oxa-4-azaindene]
pEC50 (ATXN3-HiBiT protein): 6.30 to 7.00 | pIC50 [1]: 5.30 to 6.30 | pIC50 (total ATXN3 protein): 5.30 to 6.30

C#Cc1c(C[C@@H](N)COC(F)F)oc2c(NCc3cccs3)cc(Cl)nc12 [Compound 196, 2-[(R)-2-amino-3-difluoromethoxypropyl]-5-chloro-3-ethynyl-7-thenylamino-1-oxa-4-azaindene]
pEC50 (ATXN3-HiBiT protein): 7.00 to 11.00 | pIC50 [1]: 7.00 to 11.00 | pIC50 (total ATXN3 protein): 7.00 to 11.00

C[C@H](O)Cc1oc2c(NCc3cccs3)cc(Cl)nc2c1Br [Compound 213, (S)-1-(3-bromo-5-chloro-7-thenylamino-1-oxa-4-aza-2-indenyl)-2-propanol]
pEC50 (ATXN3-HiBiT protein): 5.30 to 6.30 | pIC50 [1]: 5.30 to 6.30 | pIC50 (total ATXN3 protein): 5.30 to 6.30

N[C@@H](CCOC(F)F)Cc1oc2c(NCc3nccs3)cc(Cl)nc2c1Br [Compound 216, 2-[(S)-2-amino-4-difluoromethoxybutyl]-3-bromo-5-chloro-7-{[(1,3-thiazol-2-yl)methyl]amino}-1-oxa-4-azaindene]
pEC50 (ATXN3-HiBiT protein): 6.30 to 7.00 | pIC50 [1]: 6.30 to 7.00 | pIC50 (total ATXN3 protein): 6.30 to 7.00

[2H]C([2H])(Nc1cc(Cl)nc2c(Br)c(C[C@H](C)N)oc12)c1cccs1 [Compound 221, 2-[(S)-2-aminopropyl]-3-bromo-5-chloro-7-{[(2-thienyl)(^2H2)methyl]amino}-1-oxa-4-azaindene]
pEC50 (ATXN3-HiBiT protein): 7.00 to 11.00 | pIC50 [1]: 7.00 to 11.00 | pIC50 (total ATXN3 protein): 7.00 to 11.00

[2H]C([2H])(Nc1cc(Cl)nc2c(Br)c(C[C@@H](N)CCOC(F)F)oc12)c1cccs1 [Compound 222, 2-[(S)-2-amino-4-difluoromethoxybutyl]-3-bromo-5-chloro-7-{[(2-thienyl)(^2H2)methyl]amino}-1-oxa-4-azaindene]
pEC50 (ATXN3-HiBiT protein): 7.00 to 11.00 | pIC50 [1]: 6.30 to 7.00 | pIC50 (total ATXN3 protein): 7.00 to 11.00

CC(C)(N)Cc1oc2c(NCc3cccs3)cc(Cl)nc2c1Br [Compound 226, 2-(2-amino-2-methylpropyl)-3-bromo-5-chloro-7-thenylamino-1-oxa-4-azaindene]
pEC50 (ATXN3-HiBiT protein): 5.30 to 6.30 | pIC50 [1]: 5.30 to 6.30 | pIC50 (total ATXN3 protein): 5.30 to 6.30

NC1(Cc2oc3c(NCc4cccs4)cc(Cl)nc3c2Br)CC1 [Compound 227, 2-[(1-aminocyclopropyl)methyl]-3-bromo-5-chloro-N-(thiophen-2-ylmethyl)furo[3,2-b]pyridin-7-amine]
pEC50 (ATXN3-HiBiT protein): 5.30 to 6.30 | pIC50 [1]: 5.30 to 6.30 | pIC50 (total ATXN3 protein): 5.30 to 6.30

C[C@H](F)[C@H](N)Cc1oc2c(NCc3cccs3)cc(Cl)nc2c1C#N [Compound 237, 2-[(2R,3S)-2-amino-3-fluorobutyl]-5-chloro-7-[(thiophen-2-ylmethyl)amino]furo[3,2-b]pyridine-3-carbonitrile]
pEC50 (ATXN3-HiBiT protein): 4.40 to 5.00 | pIC50 [1]: 4.40 to 5.00 | pIC50 (total ATXN3 protein): 5.00 to 5.30
